# In BindingDB's records for patent US12545673 (TSD Life Sciences, 2026):
# Target: Mitogen-activated protein kinase kinase kinase 9 (Homo sapiens, UniProt P80192)
# Assay: Evaluation of Inhibitory Activity of Enzyme Units
# Sequence of Mitogen-activated protein kinase kinase kinase 9 (P80192 whole entry): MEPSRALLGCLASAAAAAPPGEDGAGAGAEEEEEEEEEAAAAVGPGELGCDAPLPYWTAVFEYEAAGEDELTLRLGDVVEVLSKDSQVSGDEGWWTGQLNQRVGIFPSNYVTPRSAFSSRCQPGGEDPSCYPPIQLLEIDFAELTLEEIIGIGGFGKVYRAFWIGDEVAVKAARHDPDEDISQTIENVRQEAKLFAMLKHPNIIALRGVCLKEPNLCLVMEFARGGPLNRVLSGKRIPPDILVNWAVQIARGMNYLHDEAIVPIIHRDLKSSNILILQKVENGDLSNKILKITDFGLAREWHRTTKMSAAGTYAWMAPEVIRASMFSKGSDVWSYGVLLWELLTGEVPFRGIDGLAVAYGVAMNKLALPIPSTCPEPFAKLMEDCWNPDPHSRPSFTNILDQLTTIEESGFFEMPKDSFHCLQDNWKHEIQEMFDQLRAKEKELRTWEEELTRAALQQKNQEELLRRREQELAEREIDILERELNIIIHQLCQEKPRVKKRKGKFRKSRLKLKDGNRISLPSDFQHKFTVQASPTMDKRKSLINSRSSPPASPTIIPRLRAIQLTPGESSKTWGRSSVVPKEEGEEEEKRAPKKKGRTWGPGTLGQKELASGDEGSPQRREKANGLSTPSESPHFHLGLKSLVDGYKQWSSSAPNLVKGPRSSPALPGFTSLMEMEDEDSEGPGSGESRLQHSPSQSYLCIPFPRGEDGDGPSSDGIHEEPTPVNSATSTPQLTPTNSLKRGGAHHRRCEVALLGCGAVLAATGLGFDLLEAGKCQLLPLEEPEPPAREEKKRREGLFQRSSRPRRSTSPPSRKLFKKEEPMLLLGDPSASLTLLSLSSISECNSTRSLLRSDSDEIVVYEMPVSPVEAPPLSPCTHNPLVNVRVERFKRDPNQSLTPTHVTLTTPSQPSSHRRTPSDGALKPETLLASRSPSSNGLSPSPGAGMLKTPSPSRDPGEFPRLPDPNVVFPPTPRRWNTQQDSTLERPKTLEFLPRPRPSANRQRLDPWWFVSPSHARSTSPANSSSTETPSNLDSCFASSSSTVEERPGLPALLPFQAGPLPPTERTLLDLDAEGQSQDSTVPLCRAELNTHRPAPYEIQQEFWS
smiles,measurement,value
"CCS(=O)(=O)N1CC[C@H](Nc2c(Br)cnc3nc(-c4cc(C)n(-c5ccc(OCCN6CCOCC6)cc5)c4C)[nH]c23)C1 [US12545673, Example 4]",IC50,56 nM
